# From patent US20260109725A1, “MACROLIDE SENOLYTIC COMPOUNDS” (LUNELLA BIOTECH, INC., priority 2022, published 2026)
# How the values were obtained:
# [1] = tested on: Haemophilus influenzae ATCC 49247; experiment: in vitro broth microdilution assay (MIC); format: cell-based; details: ATCC49247; Haemophilus influenzae ATCC 49247, QC strain
# Method: (§1) This is advantageous because use of the compounds of the present approach as therapeutic agents will have less of an impact on the development of antibiotic resistance. For example, embodiments of the present approach were screened for antibiotic activity, using the in vitro broth microdilution assay. […] The assay conditions, described by the Clinical and Laboratory Standards Institute were used for preparation of the inoculum, growth medium, and end point reading. Test substance was dissolved in 100% DMSO, suspended completely by vortexing, diluted by 2-fold serial titrations in the same vehicle, for a total of 11 test concentrations. A 4 μL aliquot of each dilution was added to 196 μL of broth medium seeded with the organism suspension in wells of a 96 well plate (bacterial count: 2-8×10(5) colony forming units/mL final). The final volume was 200 μL in each well and the final DMSO concentration was 2 percent. Test concentrations were 0.1 to 100 μM. Following incubation, the test plates were visually examined and wells were scored for growth or complete growth inhibition to define the minimum inhibitory concentration. Each test substance was evaluated with replicates. Vehicle controls and an active reference agent were used as blank and positive controls. Note that MRSA represents methicillin-resistant Staphylococcus aureus, and VRE represents vancomycin resistant Enterococcus.
# [2] = tested on: Klebsiella pneumoniae ATCC 43816; experiment: in vitro broth microdilution assay (MIC); format: cell-based; details: ATCC43816
# Method: as §1
# [3] = tested on: Pseudomonas aeruginosa ATCC 27853; experiment: in vitro broth microdilution assay (MIC); format: cell-based; details: ATCC27853; Pseudomonas aeruginosa ATCC 27853, QC strain
# Method: as §1
# control MRC-5 cells = experiment: xCELLigence assay, control MRC-5 cells; format: cell-based, human; details: 50 μM, 5 days
# Description: Senescent cells undergo the so-called senescence-associated secretory phenotype (SASP), which involves dramatic increases in the synthesis and secretion of proteins. The xCELLigence assay system was used to assess whether protein measurement assays under-estimate the senolytic activity of tested compounds. […] The real-time xCELLigence assay system thus compliments the more static SRB assay, and offers a more direct visualization of the potential senolytic effects of compounds during drug screening.
# The xCELLigence assay was used to confirm senolytic activity for Compound [I]. MRC-5 fibroblasts were used for the assay. […] The data is expressed as the final cell index, the average±the standard error of mean, for the control cells, control cells treated with Compound [I], BrdU-treated control cells, and BrdU-treated fibroblasts subjected to Compound [I] at 50 μM, respectively. The senescent MRC-5 cells were pretreated with BrdU for 8 days to induce senescence, before exposure to Compound [I] for another 5 days. Compared to the control, Compound [I] treatment had no effect on the viability of normal fibroblasts, but killed over 90% of the BrdU-treated fibroblasts.
# xCELLigence Assay System: xCELLigence RTCA System (ACEA Biosciences Inc.). […] This approach allows the quantification of the onset and kinetics of the cellular response. […]
# senescent MRC-5 cells = experiment: Images of MRC-5 fibroblasts with BrdU pre-treatment; format: cell-based, human; details: 50 μM
# Method: FIGS. 3A and 3B are images of MRC-5 fibroblasts without and with BrdU pre-treatment, respectively, treated with Compound [I] at a concentration of 50 μM. […] The scale bar in the upper-right of FIGS. 3B and 3C represents 20 μm.
# BrdU Assay: Cells were plated into 24-well plates. Next day, half of the plate was treated with 100 μM of BrdU while control wells were treated with vehicle only (DMSO) and incubated for 8 days at 37° C. in a 5% CO2 humidified atmosphere. After 8 days of BrdU treatment cells were treated with various test compounds or drugs (e.g., azithromycin, roxithromycin, telithromycin, erythromycin, etc.) for another 3-5 days. BrdU or vehicle treatments were continued during the drug treatments as well.
# MCF-7 cells = experiment: mammosphere formation assay (3D anchorage independent growth); format: cell-based, human
# Method: The compounds disclosed herein may also be used as therapeutic agent to selectively eradicate CSCs for treating and/or preventing tumor recurrence and/or metastasis. […] This assay measures the amount of residual protein that adheres to tissue culture dishes and is a surrogate marker of cell viability.
# 3D Anchorage Independent Growth Assay: This assay is also referred to as the mammosphere formation assay. A single-cell suspension was prepared using enzymatic, and manual disaggregation (25-g needle). Then, cells were plated at a density of 500 cells/cm^2 in mammosphere medium (DMEM-F12+1X B-27 Plus Supplement+20 ng/ml EGF+Pen/Strep) under non-adherent conditions, in culture dishes pre-coated with (2-hydroxyethylmethacrylate) (poly-HEMA, Sigma Aldrich Inc.), called “mammosphere plates.” Cells were grown for 5 days and maintained in a humidified incubator at 37° C. After 5 days of culture, 3D-mammospheres >50 μm were counted using an eye piece (“graticule”), and the percentage of cells plated which formed spheres was calculated and is referred to as percent mammosphere formation, and was normalized to one (1=100% MFE). 3D mammosphere formation efficiency (MFE) was analyzed in both the ATP-low and ATP-high sub-populations of cells. All 3D mammosphere experiments were performed in triplicate, at least 3 times independently.
structure (smiles),measurement,setting,value
"CC[C@H]1OC(=O)[C@H](C)[C@@H](O[C@@H]2C[C@@](C)(OC)[C@@H](O)[C@H](C)O2)[C@H](C)[C@@H](O[C@@H]2O[C@H](C)C[C@H](N(C)C)[C@H]2OC(=O)OCc2ccc(O[C@@H]3O[C@H](COC(C)=O)[C@H](OC(C)=O)[C@H](OC(C)=O)[C@H]3OC(C)=O)c([N+](=O)[O-])c2)[C@](C)(O)C[C@@H](C)CN(C)[C@H](C)[C@@H](O)[C@]1(C)O [Compound [I], [(2R,3S,4S,5R,6S)-3,4,5-triacetoxy-6-[4-[[(2S,3R,4S,6R)-4-(dimethylamino)-2-[[(2R,3S,4R,5R,8R,10R,11R,12S,13S,14R)-2-ethyl-3,4,10-trihydroxy-13-[(2S,4R,5S,6S)-5-hydroxy-4-methoxy-4,6-dimethyl-tetrahydropyran-2-yl]oxy-3,5,6,8,10,12,14-heptamethyl-15-oxo-1-oxa-6-azacyclopentadec-11-yl]oxy]-6-methyl-tetrahydropyran-3-yl]oxycarbonyloxymethyl]-2-nitro-phenoxy]tetrahydropyran-2-yl]methyl acetate]",MIC,[1],3.12 µM
same,MIC,[2],50 µM
same,MIC,[3],> 100 µM
same,effect on viability of normal fibroblasts (xCELLigence final cell index),control MRC-5 cells,no effect
same,effect on senescent MRC-5 cells (images),senescent MRC-5 cells,induced cell death
same,inhibition of mammosphere formation,MCF-7 cells; 100 μM,nearly complete inhibition
same,IC50,"MCF-7 cells; Homo sapiens, MCF7",60 µM
